Measurements: US5428041A, “Antihypercholesterolemic bis-trifluoromethyl-substituted imidazolines and derivatives thereof” (The Du Pont Merck Pharmaceutical Company, priority 1992, dated 1995)
pIC50: −log10 of the molar value. Where a name gives a salt, the structure may show the parent alone. Read-outs that look alike come from different tables or passages of the source.

Assays:
[1] = system: murine macrophage-like cell line J744.A1; assay: Inhibition of cholesterol esterification in mammalian cells (macrophage); format: cell-based; conditions: Mus musculus; J744.A1 macrophage-like cells loaded with ac-LDL, 14C oleic acid
Protocol: B. Assay of the Inhibition of Cholesterol Esterification in Mammalian Cells The esterification of cholesterol was determined in the murine macrophage-like cell line J744.A1. Cells were seeded in 35 mm wells at a density of 300,000 cells per well in 2 mls of Dulbecco's Modified Eagle Medium (DMEM) supplemented with 10% fetal bovine serum (FBS). Cells were incubated at 37° C. in an atmosphere of 5% CO2 and 93% humidity. After 24 hours the media was changed to 0.68 mls 10% FBS-DMEM containing 34 μg of acetylated human low density lipoprotein (ac-LDL) to increase the intracellular concentration of cholesterol and promote esterification. At 41 hours, various inhibitors were added to the cells in DMSO (10 μl/ml maximum). At 43 hours, the cells were pulsed with 0.1 mM ^14 C oleic acid (10,000 dpm/nmol) complexed with BSA (bovine serum albumin) to follow cholesterol ester formation. The experiment was terminated at 45 hours by washing the monolayers 3 times with 3 ml of Tris-buffered saline at 4° C. The lipids were extracted by incubating the monolayers with 1.5 ml of hexane: isopropanol (3:2, v/v) for 30 min. under gentle agitation. During this period, 10,000 dpm ^3 H-cholesteryl linoleate and 10 μg of cholesteryl oleate were added as an internal standard and carrier respectively. The organic solvent was remoted and the cells were washed with an additional 1.0 ml of hexane: isopropanol which was combined with the original extract. The cells were allowed to dry overnight, digested with 1.5 ml of 0.2 N sodium hydroxide for 1 hour and an aliquot of the solubilized protein used for protein determination using the Lowry method. […] Individual lipids were visualized with iodine and the cholesteryl ester spot cut out and transferred to scintillation vials to determine the amount of radioactivity.

[2] = target: T1, Acyl-CoA: Cholesterol Acyltransferase (ACAT) (Rattus norvegicus, UniProt Q7TQM4); assay: Inhibition of Acyl-CoA:Cholesterol Acyltransferase (ACAT) in hepatic microsomes; format: biochemical, Sprague Dawley rat
T1 construct: centrifuged at 105,000×g for 1 hour to pellet the microsomes; from tissue; host or cells: liver microsomes of fasted male Sprague Dawley rats
T1 sequence (Q7TQM4 1-524): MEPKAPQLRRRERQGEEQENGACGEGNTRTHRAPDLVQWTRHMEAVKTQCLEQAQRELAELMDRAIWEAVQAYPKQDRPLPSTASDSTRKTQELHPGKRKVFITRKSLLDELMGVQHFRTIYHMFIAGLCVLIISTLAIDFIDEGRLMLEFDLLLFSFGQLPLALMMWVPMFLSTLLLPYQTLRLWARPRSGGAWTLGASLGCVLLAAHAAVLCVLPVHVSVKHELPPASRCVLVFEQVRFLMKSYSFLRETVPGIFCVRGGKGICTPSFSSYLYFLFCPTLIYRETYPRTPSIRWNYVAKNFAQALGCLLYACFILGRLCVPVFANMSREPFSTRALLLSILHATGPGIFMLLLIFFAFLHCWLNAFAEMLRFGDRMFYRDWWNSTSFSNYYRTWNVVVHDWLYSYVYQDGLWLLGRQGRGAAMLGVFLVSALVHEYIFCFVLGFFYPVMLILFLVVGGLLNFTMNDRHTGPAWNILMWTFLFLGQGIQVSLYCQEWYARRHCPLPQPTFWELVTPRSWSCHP
Protocol: A. Assay of the Inhibition of Acyl-CoA: Cholesterol Acyltransferase (ACAT) in Hepatic Microsomes
The ability of the compounds to inhibit ACAT, the enzyme responsible for the intracellular synthesis of cholesteryl esters, was tested as follows. Male Sprague Dawley rates weighing 150-300 g were fed rat chow ad libitum. The animals were fasted for twenty-four hours prior to being sacrificed by decapitation. The livers were perfused in situ with 50 ml of cold 0.25M sucrose, excised and homogenized in three volumes of 0.1M phosphate buffer, pH 7.4, that contained 0.5 mM EDTA (ethylenediaminetetraacetic acid), 1.0 mM glutathione, 0.25M sucrose and 20 mM leupeptin. Microsomes were obtained by differential centrifugation; the supernatant from an initial spin at 15,000×g for 15 minutes was centrifuged at 105,000×g for 1 hour to pellet the microsomes. The microsomes were suspended in homogenization buffer, reisolated by centrifugation, and stored at -70° C. Microsomes were used within one month of preparation.
The control assay in a final volume of 200 μl consisted of 200 μg of microsomal protein, 75 μM ^14 C-oleoyl-CoA (10,000 dpm/nmol) in 0.1M phosphate, pH 7.4, that contained 1 mM glutathione. Compounds were added in 5-10 μl of DMSO (dimethyl sulfoxide or ethanol) and additional controls were run with DMSO or ethanol only. All components, except the oleoyl-CoA, were preincubated for 15 min. at 37° C. prior to the initiation of the reaction by the addition of oleoyl CoA. The assay was terminated after 10 min by the addition of 4 ml of chloroform:methanol (2:1, v/v). 20,000 dpm of ^3 H-cholesteryl oleate and 10 μg of unlabeled cholesteryl oleate and oleic acid were added as an internal standard and carrier, respectively. After allowing 10 min. for lipid extraction, 0.8 ml of deionized water was added to separate the solution into two phases. The lower chloroform phase was collected, dried under nitrogen and resuspended in 100 μl of chloroform. The sample containing the neutral lipids was spotted onto a Gelman ITLC-SA polysilicic acid gel-impregnated sheet, which was developed using a hexane: diethyl ether: acetic acid (170:30:1 v/v/v) mobile phase. The lipids were visualized by their interaction with iodine vapor and the cholesteryl ester spot was scraped into a scintillation vial and counted. The specific activity of ACAT in the control incubation averaged 260 pmol/min/mg microsomal protein. The inhibition of ACAT activity by the compounds is shown in Table 7; the data are expressed as the concentration at which ACAT activity is inhibited by 50% (IC50).

[3] = rat hepatic microsomes, 14C-oleoyl-CoA, 37° C., pH 7.4, read-out: In Vitro ACAT IC50

SMILES	pIC50 [1]	pIC50 [2, 3]	pIC50 [2]
CN(C(=O)C12CCC(C)(C(=O)O1)C2(C)C)C1N(C)C(c2ccc(F)cc2)=NC1(C(F)(F)F)C(F)(F)F (single isomer, unassigned) [Example 25]	4.01	4.39	
CCCCOc1ccc(C(=O)N(C)C2N(C)C(c3ccc(F)cc3)=NC2(C(F)(F)F)C(F)(F)F)cc1 (centres unmarked) [Example 11, N-[4,4-bis(trifluoromethyl)-2-(4-fluorophenyl)-4,5-dihydro-1-methyl-1H-imidazol-5-yl]-4-butoxy-N-methylbenzamide]	4.85	5.70	
CN(C(=O)c1ccc(C(C)(C)C)cc1)C1N(C)C(c2ccc(F)cc2)=NC1(C(F)(F)F)C(F)(F)F (centres unmarked) [Example 13, N-[4,4-bis(trifluoromethyl)-2-(4-fluorophenyl)-4,5-dihydro-1-methyl-1H-imidazol-5-yl]-4-(1,1-dimethylethyl)-N-methylbenzamide]	4.74	5.40	
CN(C(=O)c1ccc(-c2ccccc2)cc1)C1N(C)C(c2ccc(F)cc2)=NC1(C(F)(F)F)C(F)(F)F (centres unmarked) [Example 15, N-[4,4-bis(trifluoromethyl)-2-(4-fluorophenyl)-4,5-dihydro-1-methyl-1 H-imidazol-5-yl]-N-methyl-[1,1'-biphenyl]-4-carboxamide]	4.96	4.77	
CCCCCCC(=O)N(C)C1N(C)C(c2ccc(F)cc2)=NC1(C(F)(F)F)C(F)(F)F (centres unmarked) [Example 16, N-[4,4-bis(trifluoromethyl)-2-(4-fluorophenyl)-4,5-dihydro-1-methyl-1H-imidazol-5-yl]-N-methylheptanamide hydrochloride]	4.77	5.70	
CCCCCCCCCCCC(=O)N(C)C1N(C)C(c2ccc(F)cc2)=NC1(C(F)(F)F)C(F)(F)F (centres unmarked) [Example 17]		5.22	
CC(C)CCCC(=O)N(C)C1N(C)C(c2ccc(F)cc2)=NC1(C(F)(F)F)C(F)(F)F (centres unmarked) [Example 18, N-[4,4-bis(trifluoromethyl)-2-(4-fluorophenyl)-4,5-dihydro-1-methyl-1H-imidazol-5-yl]-N,5-dimethyl-hexanamide hydrochloride]		5.40	
CN(C(=O)C12CCC(C)(C(=O)O1)C2(C)C)C1N(C)C(c2ccc(F)cc2)=NC1(C(F)(F)F)C(F)(F)F (centres unmarked) [Example 26]	4.02	4.35	
CN(C(=O)Nc1ccc(F)cc1F)C1N(C)C(c2ccc(F)cc2)=NC1(C(F)(F)F)C(F)(F)F (centres unmarked) [Example 28, N-[4,4-bis(trifluoromethyl)-2-(4-fluorophenyl)-4,5-dihydro-1-methyl-1H-imidazol-5-yl]-N'-2,4-difluorophenyl-N-methylurea]		4.66	
CCCCCCCCNC(=O)N(C)C1N(C)C(c2ccc(F)cc2)=NC1(C(F)(F)F)C(F)(F)F (centres unmarked) [Example 29, N-[4,4-bis(trifluoromethyl)-2-(4-fluorophenyl)-4,5-dihydro-1-methyl-1H-imidazol-5-yl]-N'-octyl-N-methylurea hydrochloride]		4.80	
COc1ccc(C2=NC(C(F)(F)F)(C(F)(F)F)C(N(C)C(=O)CCCC(C)C)N2C)cc1 (centres unmarked) [Example 34, N-[4,4-bis(trifluoromethyl)-2-(4-methoxyphenyl)-4,5-dihydro-1-methyl-1H-imidazol-5-yl]-N,5-dimethylhexanamide hydrochloride]		5.05	
COc1ccc(OC(=O)N=C2N(C)C(c3ccc(OC)cc3)=NC2(C(F)(F)F)C(F)(F)F)cc1 [Example 121]			4.19
Cc1ccc(OC(=O)N=C2N(C)C(c3ccc(C)cc3)=NC2(C(F)(F)F)C(F)(F)F)cc1 [Example 122]			4.31

Now from value to compound, other results behind:

pIC50 [1]	pIC50 [2, 3]	SMILES	pIC50 [2]
< 4.00	4.70	CN1C(c2ccc(F)cc2)=NC(C(F)(F)F)(C(F)(F)F)C1=NC(=O)c1ccc(F)cc1 [Example 2, N-[4,4-bis(trifluoromethyl)-2-(4-fluorophenyl)-4,5-dihydro-1-methyl-1H-imidazol-5-ylidene]-4-fluoro-benzamide]	
4.21	4.70	Cc1ccc(C(=O)N=C2N(C)C(c3ccc(C)cc3)=NC2(C(F)(F)F)C(F)(F)F)cc1 [Example 5]	
	4.39	CN1C(c2ccc(F)cc2)=NC(C(F)(F)F)(C(F)(F)F)C1NC(=O)c1ccc(F)cc1 (centres unmarked) [Example 10, N-[4,4-bis-(trifluoromethyl)-2-(4-fluorophenyl)-4,5-dihydro-1-methyl-1H-imidazol-5-yl]-4-fluorobenzamide]	
3.98	4.66	CN(C(=O)c1ccc(F)cc1)C1N(C)C(c2ccc(F)cc2)=NC1(C(F)(F)F)C(F)(F)F (centres unmarked) [Example 10A, N-[4,4-bis(trifluoromethyl)2-(4-fluorophenyl)-4,5-dihydro-1-methyl-1H-imidazol-5-yl]-4-fluorophenyl-N-methylbenzamide]	
	5.22	COc1ccc(C(=O)N(C)C2N(C)C(c3ccc(F)cc3)=NC2(C(F)(F)F)C(F)(F)F)cc1 (centres unmarked) [Example 12, N-[4,4-bis(trifluoromethyl)-2-(4-fluorophenyl)-4,5-dihydro-1-methyl-1H-imidazol-5-yl]-4-methoxy-N-methylbenzamide]	
4.74	5.10	CN(C(=O)c1ccc([N+](=O)[O-])cc1)C1N(C)C(c2ccc(F)cc2)=NC1(C(F)(F)F)C(F)(F)F (centres unmarked) [Example 14, N-[4,4-bis(trifluoromethyl)-2-(4-fluorophenyl)-4,5-dihydro-1-methyl-1H-imidazol-5-yl]-N-methyl-4-nitrobenzamide]	
	5.22	CCOc1ccc(C(=O)NC2N(C)C(c3ccc(F)cc3)=NC2(C(F)(F)F)C(F)(F)F)cc1 (centres unmarked) [Example 30, N-[4,4-bis(trifluoromethyl)-2-(4-fluorophenyl)-4,5-dihydro-1-methyl-1H-imidazol-5-yl]-4-ethoxybenzamide]	
	4.72	CN1C(=CC(=O)c2ccc(F)cc2)C(C(F)(F)F)(C(F)(F)F)N=C1c1ccc(F)cc1 [Example 96B, 2-[4,4-bis(trifluoromethyl)-2-(4-fluorophenyl)-4,5-dihydro-1-methyl-1H-imidazol-5-ylidene]-1-(4-fluorophenyl)-1-ethanone]	
	< 4.00	CN1C(=O)C(C(F)(F)F)(C(F)(F)F)N=C1c1ccc(F)cc1 [Example 123, 2-(4-fluorophenyl)-3,5-dihydro-3-methyl-4,4-bis(trifluoromethyl)-4H-imidazol-4-one]	
